Data reported in ChEMBL document CHEMBL3232866, “Design of novel potent antihyperlipidemic agents with antioxidant/anti-inflammatory properties: exploiting phenothiazine's strong antioxidant activity” (J Med Chem, 2014).
Activity calls are given as the source filed them. The rule behind the calls is not given here.

How the values were obtained:
Mus musculus [1] = assay: Effect on food intake in chronic high-fat diet (2.5 w/w cholesterol, 0.5% w/w cholic acid, 10% w/w peanut oil) fed SKH-2 mouse at 56 umol/kg, ip bid for 30 days; type: ADME, organism-based; settings: in vivo, 720 h
Mus musculus [2] = assay: Effect on body weight in chronic high-fat diet (2.5 w/w cholesterol, 0.5% w/w cholic acid, 10% w/w peanut oil) fed SKH-2 mouse at 56 umol/kg, ip bid for 30 days; type: ADME, organism-based; settings: in vivo, 720 h
Mus musculus [3] = assay: Effect on blood glucose level in chronic high-fat diet (2.5 w/w cholesterol, 0.5% w/w cholic acid, 10% w/w peanut oil) fed SKH-2 mouse at 56 umol/kg, ip bid for 30 days; type: ADME, organism-based; settings: in vivo, 720 h
Mus musculus [4] = assay: Antidyslipidemic activity in chronic high-fat diet (2.5 w/w cholesterol, 0.5% w/w cholic acid, 10% w/w peanut oil) fed SKH-2 mouse assessed as HDL/LDL ratio in plasma at 56 umol/kg, ip bid for 30 days measured on day 30 (reference value: 0.2 no unit); type: functional
Mus musculus [5] = assay: Antiatherosclerotic activity in apoE-/- transgenic mouse assessed as decrease in primary atherosclerotic lesions administered for 3.5 months; type: functional, organism-based
Mus musculus [6] = assay: Hepatotoxicity in apoE-/- transgenic mouse assessed as liver enzymes level administered for 3.5 months; type: toxicity, organism-based; settings: in vivo
[7] = Antioxidant activity in rat liver microsome membrane assessed as inhibition of lipid peroxidation after 45 mins by TBARS-based spectrophotometric assay; type: functional, microsomes
[8] = system: Radical scavenging activity; assay: Antioxidant activity assessed as DPPH radical scavenging activity up to 50 uM measured within 15 mins; type: functional
[9] = system: Radical scavenging activity; assay: Antioxidant activity assessed as DPPH radical scavenging activity after 30 mins; type: functional
[10] = molecular target: T1, Squalene synthase (Rattus norvegicus) (UniProt Q02769); assay: (§1) Inhibition of squalene synthase in rat liver microsomes assessed as decrease in conversion of [3H]FPP to squalene
T1 sequence (whole entry): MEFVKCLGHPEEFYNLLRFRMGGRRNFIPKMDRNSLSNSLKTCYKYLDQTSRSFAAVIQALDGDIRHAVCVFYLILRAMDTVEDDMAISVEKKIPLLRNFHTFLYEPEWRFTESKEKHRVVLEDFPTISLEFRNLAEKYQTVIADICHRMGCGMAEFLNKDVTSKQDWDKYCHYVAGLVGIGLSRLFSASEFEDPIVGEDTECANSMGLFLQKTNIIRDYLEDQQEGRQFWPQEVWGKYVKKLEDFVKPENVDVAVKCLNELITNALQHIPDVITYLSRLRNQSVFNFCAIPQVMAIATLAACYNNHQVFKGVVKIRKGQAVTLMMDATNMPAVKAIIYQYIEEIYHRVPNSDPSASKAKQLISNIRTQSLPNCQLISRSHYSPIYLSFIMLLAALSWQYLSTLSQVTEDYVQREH

Squalene synthase = molecular target: T2, Squalene synthase (Rattus norvegicus, UniProt Q02769); assay: as §1
T2 sequence (Q02769 whole entry): T1 sequence (whole entry)

[11] = molecular target: T3, Prostaglandin G/H synthase 1 (Bos taurus) (UniProt O62664); assay: Inhibition of bovine COX-1 assessed as PGF2-alpha formation using arachidonic acid as substrate at 20 uM by enzyme immunoassay
T3 sequence (whole entry): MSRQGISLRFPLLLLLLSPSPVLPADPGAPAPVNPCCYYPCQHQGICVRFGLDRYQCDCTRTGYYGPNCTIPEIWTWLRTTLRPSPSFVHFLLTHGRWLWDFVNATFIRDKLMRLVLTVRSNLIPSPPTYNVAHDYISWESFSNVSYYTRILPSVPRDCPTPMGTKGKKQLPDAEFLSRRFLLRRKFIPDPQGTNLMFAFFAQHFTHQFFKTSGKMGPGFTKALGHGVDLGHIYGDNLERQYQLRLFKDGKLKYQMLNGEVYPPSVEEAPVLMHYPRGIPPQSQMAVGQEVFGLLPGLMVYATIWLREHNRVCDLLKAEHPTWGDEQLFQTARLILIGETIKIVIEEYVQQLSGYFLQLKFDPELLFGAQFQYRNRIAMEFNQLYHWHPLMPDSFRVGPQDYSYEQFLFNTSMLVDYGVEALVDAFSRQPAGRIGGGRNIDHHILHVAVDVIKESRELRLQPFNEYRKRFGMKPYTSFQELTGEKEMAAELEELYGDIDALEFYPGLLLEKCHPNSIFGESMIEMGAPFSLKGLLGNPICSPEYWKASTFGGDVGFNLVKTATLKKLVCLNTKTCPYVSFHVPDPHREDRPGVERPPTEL

Glycine max = assay: Inhibition of soybean lipoxygenase using sodium linoleate as substrate up to 100 uM measured for 6 mins
Rattus norvegicus [12] = assay: In vivo antidyslipidemic activity against Triton WR 1339-induced hyperlipidemic Wistar rat model assessed as decrease in total cholesterol level in plasma at 56 umol/kg, ip administered as single dose 1 hr after Triton WR 1339 challenge measured after 24 hrs; type: functional
Rattus norvegicus [13] = assay: In vivo antidyslipidemic activity against Triton WR 1339-induced hyperlipidemic Wistar rat model assessed as decrease in LDL-cholesterol level in plasma at 56 umol/kg, ip administered as single dose 1 hr after Triton WR 1339 challenge measured after 24 hrs; type: functional
Rattus norvegicus [14] = assay: In vivo antidyslipidemic activity against Triton WR 1339-induced hyperlipidemic Wistar rat model assessed as decrease in triglyceride level in plasma at 56 umol/kg, ip administered as single dose 1 hr after Triton WR 1339 challenge measured after 24 hrs; type: functional
Mus musculus [15] = assay: Antidyslipidemic activity in chronic high-fat diet (2.5 w/w cholesterol, 0.5% w/w cholic acid, 10% w/w peanut oil) fed SKH-2 mouse assessed as decrease in total cholesterol level in plasma at 56 umol/kg, ip bid for 21 days; type: functional; settings: SKH-2, Plasma, 504 h
Mus musculus [16] = assay: Antidyslipidemic activity in chronic high-fat diet (2.5 w/w cholesterol, 0.5% w/w cholic acid, 10% w/w peanut oil) fed SKH-2 mouse assessed as decrease in LDL level in plasma at 56 umol/kg, ip bid for 21 days; type: functional; settings: SKH-2, Plasma, 504 h
Mus musculus [17] = assay: Antidyslipidemic activity in chronic high-fat diet (2.5 w/w cholesterol, 0.5% w/w cholic acid, 10% w/w peanut oil) fed SKH-2 mouse assessed as decrease in total cholesterol level in plasma at 56 umol/kg, ip bid for 30 days measured on day 30; type: functional; settings: SKH-2, Plasma, 720 h
Mus musculus [18] = assay: Antidyslipidemic activity in chronic high-fat diet (2.5 w/w cholesterol, 0.5% w/w cholic acid, 10% w/w peanut oil) fed SKH-2 mouse assessed as decrease in LDL level in plasma at 56 umol/kg, ip bid for 30 days measured on day 30; type: functional; settings: SKH-2, Plasma, 720 h
Mus musculus [19] = assay: Antidyslipidemic activity in chronic high-fat diet (2.5 w/w cholesterol, 0.5% w/w cholic acid, 10% w/w peanut oil) fed SKH-2 mouse assessed as increase in HDL level in plasma at 56 umol/kg, ip bid for 30 days measured on day 30; type: functional
Mus musculus [20] = assay: Antidyslipidemic activity in chronic high-fat diet (2.5 w/w cholesterol, 0.5% w/w cholic acid, 10% w/w peanut oil) fed SKH-2 mouse assessed as triglyceride level in plasma at 56 umol/kg, ip bid for 30 days measured on day 30; type: functional, organism-based
Homo sapiens [21] = species: Homo sapiens; assay: Antioxidant activity against CuSO4-induced human LDL oxidation assessed as prolongation of lag time by spectrophotometric analysis; type: functional
Homo sapiens [22] = species: Homo sapiens; assay: Antioxidant activity against CuSO4-induced human LDL oxidation assessed as inhibition of rate of conjugate diene formation at 1 uM by spectrophotometric analysis; type: functional
Homo sapiens [23] = species: Homo sapiens; assay: Antioxidant activity against CuSO4-induced human LDL oxidation assessed as lag time at 0.10 uM by spectrophotometric analysis (reference value: 122 mins); type: functional
Homo sapiens [24] = species: Homo sapiens; assay: Antioxidant activity against CuSO4-induced human LDL oxidation assessed as lag time at 0.50 uM by spectrophotometric analysis (reference value: 122 mins); type: functional
Homo sapiens [25] = species: Homo sapiens; assay: Antioxidant activity against CuSO4-induced human LDL oxidation assessed as delta-lag time at 0.50 uM by spectrophotometric analysis; type: functional
Homo sapiens [26] = species: Homo sapiens; assay: Antioxidant activity against CuSO4-induced human LDL oxidation assessed as delta-lag time at 0.10 uM by spectrophotometric analysis; type: functional
Homo sapiens [27] = species: Homo sapiens; assay: Antioxidant activity against CuSO4-induced human LDL oxidation assessed as increase in lag time at 0.50 uM by spectrophotometric analysis; type: functional
Homo sapiens [28] = species: Homo sapiens; assay: Antioxidant activity against CuSO4-induced human LDL oxidation assessed as increase in lag time at 1 uM by spectrophotometric analysis; type: functional
Homo sapiens [29] = species: Homo sapiens; assay: Antioxidant activity against CuSO4-induced human LDL oxidation assessed as increase in lag time at 0.10 uM by spectrophotometric analysis; type: functional
Homo sapiens [30] = species: Homo sapiens; assay: Antioxidant activity against CuSO4-induced human LDL oxidation assessed as inhibition of rate of conjugate diene formation at 0.50 uM by spectrophotometric analysis; type: functional
Homo sapiens [31] = species: Homo sapiens; assay: Antioxidant activity against CuSO4-induced human LDL oxidation assessed as inhibition of rate of conjugate diene formation at 0.10 uM by spectrophotometric analysis; type: functional
Mus musculus [32] = assay: In vivo antiinflammatory activity in mouse assessed as decrease in carrageenan-induced paw edema at 0.30 mmol/kg, ip administered immediately after carrageenan injection measured after 3.5 hrs; type: functional
Mus musculus [33] = assay: Antidyslipidemic activity in high-fat diet (35.5% w/w fat) fed SKH-2 mouse assessed as decrease in total cholesterol level in plasma at 56 umol/kg, ip bid for 28 days measured on day 28; type: functional; settings: SKH-2, Plasma, 672 h
Mus musculus [34] = assay: Antidyslipidemic activity in high-fat diet (35.5% w/w fat) fed SKH-2 mouse assessed as decrease in LDL level in plasma at 56 umol/kg, ip bid for 28 days measured on day 28; type: functional; settings: SKH-2, Plasma, 672 h
Mus musculus [35] = assay: Antidyslipidemic activity in high-fat diet (35.5% w/w fat) fed SKH-2 mouse assessed as HDL level in plasma at 56 umol/kg, ip bid for 28 days measured on day 28; type: functional, organism-based
Mus musculus [36] = assay: Antidyslipidemic activity in high-fat diet (35.5% w/w fat) fed SKH-2 mouse assessed as triglyceride level in plasma at 56 umol/kg, ip bid for 28 days measured on day 28; type: functional, organism-based
Mus musculus [37] = assay: Antidyslipidemic activity in high-fat diet (35.5% w/w fat) fed SKH-2 mouse assessed as HDL/LDL ratio in plasma at 56 umol/kg, ip bid for 28 days measured on day 28 (reference value: 0.5 no unit); type: functional
Mus musculus [38] = assay: In vivo antioxidant activity in high-fat diet (35.5% w/w fat) fed SKH-2 mouse assessed as reduction in malondialdehyde level in plasma at 56 umol/kg, ip bid for 28 days measured on day 28; type: functional; settings: SKH-2, Plasma, 672 h
Mus musculus [39] = assay: Effect on body weight in high-fat diet (35.5% w/w fat) fed SKH-2 mouse at 56 umol/kg, ip bid for 28 days; type: ADME, organism-based; settings: in vivo, 672 h
Mus musculus [40] = assay: Effect on food intake high-fat diet fed SKH-2 mouse at 56 umol/kg, ip bid for 28 days; type: ADME, organism-based; settings: in vivo, 672 h
Mus musculus [41] = assay: Effect on blood glucose level in high-fat diet (35.5% w/w fat) fed SKH-2 mouse at 56 umol/kg, ip bid for 28 days; type: ADME, organism-based; settings: in vivo, 672 h
Mus musculus [42] = assay: Toxicity in high-fat diet (35.5% w/w fat) fed SKH-2 mouse at 56 umol/kg, ip bid for 28 days by macroscopic analysis; type: organism-based; settings: in vivo, 672 h

CN1CCOC(O)(c2ccc3c(c2)Nc2ccccc2S3)C1 (racemic)
Activity (Mus musculus [1]): Non-toxic | Activity (Mus musculus [2]): Non-toxic | Activity (Mus musculus [3]): Non-toxic | Ratio (Mus musculus [4]): 1.2 | inhibition (Mus musculus [5]): Active | Activity (Mus musculus [6]): Non-toxic | IC50 [7]: 0.47 µM | Activity [8]: Active | IC50 [9]: 191 µM | inhibition [10]: Dose-dependent effect | IC50 (Squalene synthase): 5 µM | inhibition [11]: 92% | inhibition (Glycine max): inactive | inhibition in vivo at 56 µmol/kg (Rattus norvegicus [12]): 70% | inhibition in vivo at 56 µmol/kg (Rattus norvegicus [13]): 80% | inhibition in vivo at 56 µmol/kg (Rattus norvegicus [14]): 94% | inhibition in vivo at 56 µmol/kg (Mus musculus [15]): 45% | inhibition in vivo at 56 µmol/kg (Mus musculus [16]): 58% | inhibition in vivo at 56 µmol/kg (Mus musculus [17]): 53% | inhibition in vivo at 56 µmol/kg (Mus musculus [18]): 76% | Activity (Mus musculus [19]): 120% | Activity (Mus musculus [20]): inactive

CN1CC(O)(c2ccc3c(c2)Nc2ccccc2S3)OC2CCCCC21 (racemic)
IC50 [7]: 0.93 µM | Activity [8]: Active | IC50 [9]: 188 µM | Activity (Homo sapiens [21]): Dose-dependent effect | inhibition (Homo sapiens [22]): 100% | TIME (Homo sapiens [23]): 1.82 h | TIME (Homo sapiens [24]): 3.33 h | TIME (Homo sapiens [25]): 1.3 h | TIME (Homo sapiens [26]): -0.217 h | Activity (Homo sapiens [27]): 64% | Activity (Homo sapiens [28]): 100% | Activity (Homo sapiens [29]): 0% | inhibition (Homo sapiens [30]): 41% | inhibition (Homo sapiens [31]): 0% | inhibition [10]: Dose-dependent effect | IC50 (Squalene synthase): 11.9 µM | inhibition [11]: 55% | inhibition (Glycine max): inactive | inhibition in vivo at 300 µmol/kg (Mus musculus [32]): 41% | inhibition in vivo at 56 µmol/kg (Rattus norvegicus [12]): 50% | inhibition in vivo at 56 µmol/kg (Rattus norvegicus [13]): 68% | inhibition in vivo at 56 µmol/kg (Rattus norvegicus [14]): 77% | inhibition in vivo at 56 µmol/kg (Mus musculus [33]): 54% | inhibition in vivo at 56 µmol/kg (Mus musculus [34]): 76% | Activity (Mus musculus [35]): inactive | Activity (Mus musculus [36]): inactive | Ratio (Mus musculus [37]): 1.7 | inhibition in vivo at 56 µmol/kg (Mus musculus [38]): 38% | Activity (Mus musculus [39]): Non-toxic | Activity (Mus musculus [40]): Non-toxic | Activity (Mus musculus [41]): Non-toxic | Activity (Mus musculus [42]): Non-toxic
